Patent publication US8158810B2 (Gilead Sciences, Inc., priority 2006, dated 2012)

Key:
[1] = molecular target: T1, hMAO-B (Homo sapiens, UniProt P27338); assay: MAO-B inhibition assay; assay type: biochemical; conditions: No = no inhibition; for hMAO-B inhibition at 10 μM: printed in the IC50 hMAO-B column
T1 construct: purchased Sigma M7441
T1 sequence (P27338 1-520): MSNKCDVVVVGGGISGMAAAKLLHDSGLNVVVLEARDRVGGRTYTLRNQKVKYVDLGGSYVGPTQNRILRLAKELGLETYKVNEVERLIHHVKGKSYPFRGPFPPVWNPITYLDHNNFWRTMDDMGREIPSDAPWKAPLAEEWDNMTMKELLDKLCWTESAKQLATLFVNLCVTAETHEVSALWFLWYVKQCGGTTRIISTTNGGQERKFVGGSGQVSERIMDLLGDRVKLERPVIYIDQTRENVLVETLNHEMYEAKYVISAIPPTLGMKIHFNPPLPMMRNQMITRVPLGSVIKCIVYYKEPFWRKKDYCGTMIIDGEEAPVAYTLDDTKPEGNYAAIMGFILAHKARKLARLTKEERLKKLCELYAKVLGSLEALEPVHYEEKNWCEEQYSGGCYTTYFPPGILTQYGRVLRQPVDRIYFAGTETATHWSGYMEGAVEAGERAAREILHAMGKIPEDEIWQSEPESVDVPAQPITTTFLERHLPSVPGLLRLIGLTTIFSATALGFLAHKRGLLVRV
Procedure: (§1) MAO-A (Sigma M7316) and MAO-B (Sigma M7441) inhibition assays were conducted in 96-well micro-plates according to the method described by Zhou et al. [Analytical Biochemistry 253, 169-174, 1997]. […] Reactions were initiated by the addition of a pre-mixed solution of tyramine, horseradish peroxidase and Amplex Red, and were allowed to proceed at 37° C. for 30 min. Enzyme activities were determined by measuring absorbance at 570 nm (SpectralMax Plate reader), absorbance of oxidized Amplex Red generated by this horseradish peroxidase-coupled reaction. Nonspecifically formed products were determined in the presence of 2 and 10 µM clorgyline and deprenyl for MAO-A and MAO-B, respectively. IC50 values were determined by fitting concentration-inhibition data to sigmoidal dose-response curves with two-floating parameters: IC50 and Hill coefficient.

[2] = molecular target: T2, hMAO-A (Homo sapiens, UniProt P21397); assay: MAO-A inhibition assay; assay type: biochemical; conditions: No = no inhibition; for hMAO-A inhibition up to 10 μM: printed in the IC50 hMAO-A column
T2 construct: purchased Sigma M7316
T2 sequence (P21397 1-527): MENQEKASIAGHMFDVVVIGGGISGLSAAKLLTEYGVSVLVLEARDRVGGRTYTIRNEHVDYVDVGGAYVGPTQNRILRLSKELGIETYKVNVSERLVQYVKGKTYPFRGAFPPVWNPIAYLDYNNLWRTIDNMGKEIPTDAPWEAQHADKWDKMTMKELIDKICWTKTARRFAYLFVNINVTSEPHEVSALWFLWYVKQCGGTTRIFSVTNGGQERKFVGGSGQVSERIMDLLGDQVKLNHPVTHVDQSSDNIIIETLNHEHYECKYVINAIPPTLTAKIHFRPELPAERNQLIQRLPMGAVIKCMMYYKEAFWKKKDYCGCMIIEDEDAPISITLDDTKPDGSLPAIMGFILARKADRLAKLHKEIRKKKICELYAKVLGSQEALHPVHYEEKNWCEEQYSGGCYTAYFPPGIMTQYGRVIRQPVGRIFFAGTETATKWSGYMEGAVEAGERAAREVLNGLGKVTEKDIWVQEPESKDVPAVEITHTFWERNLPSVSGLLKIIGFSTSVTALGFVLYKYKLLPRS
Procedure: as §1

Structure (SMILES) | hMAO-A inhibition up to 10 μM [2] | hMAO-B inhibition up to 10 μM [1] | other results
O=c1c(-c2ccc(O)cc2)coc2cc(OCc3noc(-c4ccc(F)cc4)n3)ccc12 [PT-11, 7-{[5-(4-fluorophenyl)(1,2,4-oxadiazol-3-yl)]methoxy}-3-(4-hydroxyphenyl)chromen-4-one] | No | – | hMAO-B inhibition at 10 μM ([1]; listed as PT-104, 10 µM): No
O=c1c(-c2ccc(O)cc2)coc2cc(OCc3coc(-c4cccc(C(F)(F)F)c4)n3)ccc12 [PT-12, 3-(4-hydroxyphenyl)-7-({2-[3-(trifluoromethyl)phenyl](1,3-oxazol-4-yl)}methoxy)chromen-4-one] | No | – | hMAO-B inhibition at 10 μM [1]: No
O=c1c(-c2ccc(O)cc2)coc2cc(OCc3coc(-c4cc(F)cc(C(F)(F)F)c4)n3)ccc12 [PT-13, 7-({2-[5-fluoro-3-(trifluoromethyl)phenyl](1,3-oxazol-4-yl)}methoxy)-3-(4-hydroxyphenyl)chromen-4-one] | No | – | hMAO-B inhibition at 10 μM [1]: No
O=c1c(-c2ccc(O)cc2)coc2cc(OCc3coc(-c4cc(F)cc(F)c4)n3)ccc12 [PT-14, 7-{[2-(3,5-difluorophenyl)(1,3-oxazol-4-yl)]methoxy}-3-(4-hydroxyphenyl)chromen-4-one] | No | – | hMAO-B inhibition at 10 μM [1]: No
O=c1c(-c2ccc(O)cc2)coc2cc(OCc3coc(-c4ccc(F)cc4)n3)ccc12 [PT-16, 7-{[2-(4-fluorophenyl)(1,3-oxazol-4-yl)]methoxy}-3-(4-hydroxyphenyl)chromen-4-one] | No | – | hMAO-B inhibition at 10 μM [1]: No
O=c1c(-c2ccc(O)cc2)coc2cc(OCc3noc(-c4ccccc4)n3)ccc12 [PT-24, 3-(4-hydroxyphenyl)-7-[(5-phenyl(1,2,4-oxadiazol-3-yl))methoxy]chromen-4-one] | – | – | hMAO-B inhibition up to 40 μM ([1]; up to 40 μM): No; hMAO-A inhibition up to 40 μM [2]: No
N#Cc1cccc(COc2ccc3c(=O)c(-c4ccc(O)cc4)coc3c2)c1 [PT-25, 3-{[3-(4-hydroxyphenyl)-4-oxochromen-7-yloxy]methyl}benzenecarbonitrile] | No | No | –
COc1ccc(COc2ccc3c(=O)c(-c4ccc(O)cc4)coc3c2)cc1C(F)(F)F [PT-27, 3-(4-hydroxyphenyl)-7-{[4-methoxy-3-(trifluoromethyl)phenyl]methoxy}chromen-4-one] | No | No | –
O=c1c(-c2ccc(O)cc2)coc2cc(OCc3noc(-c4cc(F)cc(C(F)(F)F)c4)n3)ccc12 [PT-29, 7-({5-[3-fluoro-5-(trifluoromethyl)phenyl](1,2,4-oxadiazol-3-yl)}methoxy)-3-(4-hydroxyphenyl)chromen-4-one] | – | – | hMAO-B inhibition up to 30 μM [1]: No; hMAO-A inhibition up to 30 μM [2]: No
O=c1c(-c2ccc(O)cc2)coc2cc(OCc3noc(-c4ccc(F)c(C(F)(F)F)c4)n3)ccc12 [PT-30, 7-({5-[4-fluoro-3-(trifluoromethyl)phenyl](1,2,4-oxadiazol-3-yl)}methoxy)-3-(4-hydroxyphenyl)chromen-4-one] | No | No | –
O=c1c(-c2ccc(O)cc2)coc2cc(OCc3noc(-c4cc(C(F)(F)F)ccc4C(F)(F)F)n3)ccc12 [PT-31, 7-({5-[2,5-bis(trifluoromethyl)phenyl](1,2,4-oxadiazol-3-yl)}methoxy)-3-(4-hydroxyphenyl)chromen-4-one] | No | No | –
C=CCOC(=O)c1cccc(-c2nc(COc3ccc4c(=O)c(-c5ccc(O)cc5)coc4c3)no2)c1 [PT-32, prop-2-enyl 3-(3-{[3-(4-hydroxyphenyl)-4-oxochromen-7-yloxy]methyl}-1,2,4-oxadiazol-5-yl)benzoate] | No | No | –
O=C(O)c1ccc(COc2ccc3c(=O)c(-c4ccc(O)cc4)coc3c2)cc1 [PT-36, 4-{[3-(4-hydroxyphenyl)-4-oxochromen-7-yloxy]methyl}benzoic acid] | – | – | hMAO-B inhibition up to 30 μM [1]: No; hMAO-A inhibition up to 40 μM [2]: No
NC(=O)c1ccc(COc2ccc3c(=O)c(-c4ccc(O)cc4)coc3c2)cc1 [PT-37, 4-{[3-(4-hydroxyphenyl)-4-oxochromen-7-yloxy]methyl}benzamide] | – | – | hMAO-B inhibition up to 30 μM [1]: No; hMAO-A inhibition up to 30 μM [2]: No
O=c1c(-c2ccc(O)cc2)coc2cc(OCc3noc(-c4ccc(C(F)(F)F)cc4)n3)ccc12 [PT-38, 3-(4-hydroxyphenyl)-7-({5-[4-(trifluoromethyl)phenyl](1,2,4-oxadiazol-3-yl)}methoxy)chromen-4-one] | – | – | hMAO-B inhibition up to 30 μM [1]: No; hMAO-A inhibition up to 30 μM [2]: No
O=c1c(-c2ccc(O)cc2)coc2cc(OCc3noc(-c4cc(C(F)(F)F)cc(C(F)(F)F)c4)n3)ccc12 [PT-39, 7-({5-[3,5-bis(trifluoromethyl)phenyl](1,2,4-oxadiazol-3-yl)}methoxy)-3-(4-hydroxyphenyl)chromen-4-one] | No | No | –
N#Cc1cccc(-c2nc(COc3ccc4c(=O)c(-c5ccc(O)cc5)coc4c3)no2)c1 [PT-40, 3-(3-{[3-(4-hydroxyphenyl)-4-oxochromen-7-yloxy]methyl}-1,2,4-oxadiazol-5-yl)benzenecarbonitrile] | No | No | –
O=C(O)c1cccc(-c2nc(COc3ccc4c(=O)c(-c5ccc(O)cc5)coc4c3)no2)c1 [PT-41, 3-(3-{[3-(4-hydroxyphenyl)-4-oxochromen-7-yloxy]methyl}-1,2,4-oxadiazol-5-yl)benzoic acid] | No | No | –
C[C@@H](NC(=O)COc1ccc2c(=O)c(-c3ccc(O)cc3)coc2c1)c1ccc(F)cc1 [PT-90, N-[(1R)-1-(4-fluorophenyl)ethyl]-2-[3-(4-hydroxyphenyl)-4-oxochromen-7-yloxy]acetamide] | No | – | –
O=c1c(-c2ccc(O)cc2)coc2cc(OCc3ccccn3)ccc12 [PT-91, 3-(4-hydroxyphenyl)-7-(2-pyridylmethoxy)chromen-4-one] | No | – | –
O=c1c(-c2ccc(O)cc2)coc2cc(OCCNCc3cccc(C(F)(F)F)c3)ccc12 [PT-99, 3-(4-hydroxyphenyl)-7-[2-({[3-(trifluoromethyl)phenyl]methyl}amino)ethoxy]chromen-4-one] | No | – | –
COC(=O)c1coc(COc2ccc3c(=O)c(-c4ccc(O)cc4)coc3c2)n1 [PT-101, methyl 2-{[3-(4-hydroxyphenyl)-4-oxochromen-7-yloxy]methyl}-1,3-oxazole-4-carboxylate] | No | – | –
O=C(O)c1coc(COc2ccc3c(=O)c(-c4ccc(O)cc4)coc3c2)n1 [PT-102, 2-{[3-(4-hydroxyphenyl)-4-oxochromen-7-yloxy]methyl}-1,3-oxazole-4-carboxylic acid] | No | – | –
C[C@H](NC(=O)COc1ccc2c(=O)c(-c3ccc(O)cc3)coc2c1)c1ccc(F)cc1 [PT-103, N-[(1S)-1-(4-fluorophenyl)ethyl]-2-[3-(4-hydroxyphenyl)-4-oxochromen-7-yloxy]acetamide] | 36% | – | –
O=c1c(-c2ccc(O)cc2)coc2cc(OC[C@H](O)Cc3ccccc3)ccc12 [PT-109, 7-((2R)-2-hydroxy-3-phenylpropoxy)-3-(4-hydroxyphenyl)chromen-4-one] | 26% | – | –
CS(=O)(=O)Nc1ccc(-c2c(O)oc3cc(OCc4cccc(C(=O)O)c4)ccc3c2=O)cc1 [PT-111, 3-[(2-hydroxy-3-{4-[(methylsulfonyl)amino]phenyl}-4-oxochromen-7-yloxy)methyl]-benzoic acid] | No | – | –
